Series [1] has as its target human cytochrome P450 3A4 (Homo sapiens, UniProt P08684). The method, then: 3A4 protein produced essentially as described in “Protein purification (3)” above was used to obtain co-crystals with metyrapone, apart from replacing the CM-Sepharose column with a CM-fast flow column. Co-crystals of metyrapone were generated using crystallisation conditions of 0.1M Hepes pH 7.5, 0.25M sodium chloride, 5% MPD, 50 mM Calcium chloride, 10% (w/v) PEG 4000, and soaking the crystals in 0.5 mM metyrapone for 4 hours. […] The Fe—N bond distance was loosely restrained to […] during the refinement.
3A4 protein produced essentially as described in “Protein purification (3)” above was used to obtain co-crystals with progesterone, apart from replacing the CM-Sepharose column with a CM-fast flow column. Co-crystals of progesterone were obtained by co-crystallisation using 0.5 mM progesterone in 2.5% ethanol and crystallisation conditions of 0.1M HEPES pH 7.5, 0.25M potassium chloride, 12% (w/v) PEG 4000, 5% (w/v) MPD, 25 mM calcium chloride.
Molecular replacement was performed using the program AMORE and using the CYP3A4 crystal structure described in Table 1 as the search model. […] This molecular replacement model was then used as a starting model for subsequent refinement of other datasets from crystal form 2.
Apo (compound-free) crystals of 3A4 were obtained by setting up a 1:1 ratio of protein (at 36.5 mg/ml in buffer, 10 mM KPi, pH7.2, 20% glycerol, 1 mM EDTA, 2 mM DTT, 0.5M KCl) against 0.1 M Hepes-NaOH pH 7.5, 1.44 M sodium citrate.
Apo (compound-free) crystals of 3A4 were generated by setting up a 1:1 ratio of protein (at 36.5 mg/ml in buffer, 10 mM KPi, pH7.2, 20% glycerol, 1 mM EDTA, 2 mM DTT, 0.5M KCl) against 0.1M Hepes-NaOH pH 7.5, 1.424M Sodium citrate. The resulting crystals were soaked for 18 hours in a mother liquor containing 5 mM fluconazole, and then frozen using 0.1M Hepes-NaOH pH7.5, 1.4M sodium citrate, 15% glycerol.

In a further series the target is T1, CYP3A4 (Homo sapiens, UniProt P08684).
T1 construct: made in house; host or cells: E. coli XL1 Blue
Nature of the series: UV/visible spectroscopy of inhibitor binding in solution. The conditions noted are these: UV/visible spectroscopic data (not shown).

Sequence of human cytochrome P450 3A4 (P08684 with tags, fused parts or gaps): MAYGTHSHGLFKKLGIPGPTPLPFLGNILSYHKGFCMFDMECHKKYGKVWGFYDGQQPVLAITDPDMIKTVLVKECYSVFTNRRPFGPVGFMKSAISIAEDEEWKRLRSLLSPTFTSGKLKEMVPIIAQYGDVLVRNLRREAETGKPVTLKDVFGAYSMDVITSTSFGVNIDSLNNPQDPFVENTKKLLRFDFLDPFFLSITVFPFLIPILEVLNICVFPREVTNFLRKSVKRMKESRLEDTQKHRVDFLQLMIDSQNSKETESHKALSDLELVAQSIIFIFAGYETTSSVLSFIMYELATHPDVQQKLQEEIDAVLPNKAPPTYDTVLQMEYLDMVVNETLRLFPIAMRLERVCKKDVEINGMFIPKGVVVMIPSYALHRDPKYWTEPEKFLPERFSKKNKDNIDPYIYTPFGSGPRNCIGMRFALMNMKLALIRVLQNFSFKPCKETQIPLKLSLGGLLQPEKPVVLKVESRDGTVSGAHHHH
T1 sequence (P08684 with tags, fused parts or gaps): as above

As for `OC(Cn1cncn1)(Cn1cncn1)c1ccc(F)cc1F` [fluconazole], in series [1], the “distance of the compound (nearest atom) from the haem iron” value was “approximately 14 Å” and the “separation of the two bound copies of the compound” value is reported as “approximately 7 Å”.
With `CC(C)(C(=O)c1cccnc1)c1cccnc1` [metyrapone], the “binding mode in solution” value on CYP3A4 is on record as “liganded to the haem”. In series [1], the “binding position of the compound in the 3A4 crystal structure” value was “bound directly to the haem iron via a pyridine nitrogen” and the “volume occupied by the molecule in the active site” value is on record as 50 Å^3.
With `CC(=O)[C@H]1CC[C@H]2[C@@H]3CCC4=CC(=O)CC[C@]4(C)[C@H]3CC[C@]12C` [progesterone], the “binding position of the compound in the 3A4 crystal structure” value in series [1] is “bound at a peripheral site very close to the Phe-cluster”.

These data come from patent publication US20070179716A1, “Crystal structure of cytochrome P450 3A4 and uses thereof” (ASTEX THERAPEUTICS LIMITED, priority 2001, published 2007).
